Reference: patent US12582638B2, “Pharmaceutical composition for treating cancer, containing mTOR-signaling inhibitor as active ingredient” (KOREA ADVANCED INSTITUTE OF SCIENCE AND TECHNOLOGY, priority 2020, dated 2026)

Key:
Assay in all cases: Cell viability, CellTiterGlo, 72 hours
Format in all cases: cell-based
HCC38 = details: Homo sapiens, HCC38 cells, Breast
Method: (§1) In addition to the colorectal cells, 120 cancer cell lines treated with various concentrations of lomitapide were assayed for viability. To analyze cell viability, the cells were incubated with lomitapide at 37° C. for 72 hours in a 5% or 10% CO2 atmosphere and then equilibrated at room temperature for 1 hour, followed by addition of CellTiterGlo reagent (Promega). One hour later, luminescence was measured to calculate cell viability (%). The 120 cell lines were purchased from ATCC (American Type Culture Collection, Virginia, USA).

EPLC-272H = details: Homo sapiens, EPLC-272H cells, Lung
Method: as §1

NCI-H441 = details: Homo sapiens, NCI-H441 cells, Lung
Method: as §1

Ishikawa = details: Homo sapiens, Ishikawa cells, Endometrium
Method: as §1

KARPAS 299 = details: Homo sapiens, KARPAS 299 cells, Blood
Method: as §1

BEN = BEN cells, Lung
Method: as §1

NCI-H1563 = details: Homo sapiens, NCI-H1563 cells, Lung
Method: as §1

U251MG = details: Homo sapiens, U-251, U251MG cells, Brain
Method: as §1

HCT-15 = details: Homo sapiens, HCT-15 cells, Colon
Method: as §1

J82 = details: Homo sapiens, J82 cells, Bladder
Method: as §1

A172 = details: Homo sapiens, A 172, A172 cells, Brain
Method: as §1

HCC 1569 = details: Homo sapiens, HCC1569, HCC 1569 cells, Breast
Method: as §1

NCI-H1437 = details: Homo sapiens, NCI-H1437 cells, Lung
Method: as §1

Caki-2 = details: Homo sapiens, Caki-2 cells, Kidney
Method: as §1

SW620 = details: Homo sapiens, SW-620, SW620 cells, Colon
Method: as §1

SK-MEL-3 = details: Homo sapiens, SK-MEL3, SK-MEL-3 cells, Skin
Method: as §1

SNU-216 = SNU-216 cells, Stomach
Method: as §1

JVM-3 = details: Homo sapiens, JVM-3 cells, Blood
Method: as §1

T84 = details: Homo sapiens, T84 cells, Colon
Method: as §1

EFM-192A = EFM-192A cells, Breast
Method: as §1

LOVO = details: Homo sapiens, LOVO cells, Colon
Method: as §1

MOLT-4 = details: Homo sapiens, MOLT-4 cells, Blood
Method: as §1

Colo 205 = details: Homo sapiens, Colo 205 cells, Colon
Method: as §1

PC3 = details: Homo sapiens, PC-3, PC3 cells, Prostate
Method: as §1

MCF-7 = details: Homo sapiens, MCF7, MCF-7 cells, Breast
Method: as §1

HCT116 = details: Homo sapiens, HCT-116, HCT116 cells, Colon
Method: as §1

SNU-1 = details: Homo sapiens, SNU1, SNU-1 cells, Stomach
Method: as §1

NCI-H82 = details: Homo sapiens, NCI-H82 cells, Lung
Method: as §1

U2OS = details: Homo sapiens, U2OS cells, Bone
Method: as §1

SK-ES-1 = details: Homo sapiens, SK-ES1, SK-ES-1 cells, Bone
Method: as §1

A375 = details: Homo sapiens, A-375, A375 cells, Skin
Method: as §1

NCI-H2286 = details: Homo sapiens, NCI-H2286 cells, Lung
Method: as §1

MV4-11 = details: Homo sapiens, MV4-11 cells, Blood
Method: as §1

A2058 = details: Homo sapiens, A2058 cells, Skin
Method: as §1

HEC-1-B = details: Homo sapiens, HEC-1-B cells, Endometrium
Method: as §1

NCI-H1573 = details: Homo sapiens, NCI-H1573 cells, Lung
Method: as §1

OCI-AML5 = details: Homo sapiens, OCI-AML-5, OCI-AML5 cells, Blood
Method: as §1

NCI-H1581 = details: Homo sapiens, NCI-H1581 cells, Lung
Method: as §1

NCI-H1703 = details: Homo sapiens, NCI-H1703 cells, Lung
Method: as §1

O=C(NC1CCN(CCCCC2(C(=O)NCC(F)(F)F)c3ccccc3-c3ccccc32)CC1)c1ccccc1-c1ccc(C(F)(F)F)cc1 [lomitapide, N-(2,2,2-trifluoroethyl)-9-[4-[4-[[[4′-(trifluoromethyl)[1,1′-biphenyl]2-yl]carbonyl]amino]-1-piperidinyl]butyl]-9H-fluoren-9-carboxamide]
IC50 (HCC38): 6 µM | IC50 (EPLC-272H): 3.1 µM | IC50 (NCI-H441): 3.2 µM | IC50 (Ishikawa): 3.6 µM | IC50 (KARPAS 299): 1.4 µM | IC50 (BEN): 4.2 µM | IC50 (NCI-H1563): 5.3 µM | IC50 (U251MG): 5.4 µM | IC50 (HCT-15): 3.5 µM | IC50 (J82): 3.6 µM | IC50 (A172): 1.9 µM | IC50 (HCC 1569): 2.9 µM | IC50 (NCI-H1437): 3.1 µM | IC50 (Caki-2): 2.8 µM | IC50 (SW620): 3.6 µM | IC50 (SK-MEL-3): 1.6 µM | IC50 (SNU-216): 3.1 µM | IC50 (JVM-3): 4 µM | IC50 (T84): 3.2 µM | IC50 (EFM-192A): 4 µM | IC50 (LOVO): 3.4 µM | IC50 (MOLT-4): 3.6 µM | IC50 (Colo 205): 3.4 µM | IC50 (PC3): 4.3 µM | IC50 (MCF-7): 2.8 µM | IC50 (HCT116): 5 µM | IC50 (SNU-1): 2.8 µM | IC50 (NCI-H82): 3.2 µM | IC50 (U2OS): 2.8 µM | IC50 (SK-ES-1): 3.5 µM | IC50 (A375): 1.8 µM | IC50 (NCI-H2286): 3.4 µM | IC50 (MV4-11): 6.2 µM | IC50 (A2058): 1.4 µM | IC50 (HEC-1-B): 6.9 µM | IC50 (NCI-H1573): 4.7 µM | IC50 (OCI-AML5): 2.7 µM | IC50 (NCI-H1581): 3.7 µM | IC50 (NCI-H1703): 5.7 µM
